Columns and labels:
corn borers = conditions: concentration 600 mg/kg
[1] = tested on: Colletotrichum orbiculare; test: Fungicidal (bactericidal) activity in vitro, PDA colony diameter; type: cell-based; conditions: 50 mg/kg
potato late blight = test: microbe, parasite or virus in culture; type: cell-based
Phytophthora capsici = test: Fungicidal (bactericidal) activity in vitro, PDA colony diameter; type: cell-based; conditions: 50 mg/kg
Sclerotinia scleotiorum = test: as above; type: cell-based; conditions: 50 mg/kg
[2] = tested on: tobacco mosaic virus (TMV); test: Anti-TMV in vivo protective effect; set-up: species or system tobacco mosaic virus (host Nicotiana tabacum L.cv.Xanthi NN)
cotton bollworms = test: whole plant or invertebrate; conditions: concentration 600 mg/kg
Experimental: Experimental method of cotton bollworms: feed and drug mixing method: measure 3 mL of prepared solution and add it to about 27 g of newly prepared feed, thereby obtaining needed concentration through dilution by 10 times.

Fusarium fujikuroi = test: Fungicidal (bactericidal) activity in vitro, PDA colony diameter; type: cell-based; conditions: 50 mg/kg
[3] = tested on: tobacco mosaic virus (TMV); test: Anti-TMV in vivo therapeutic effect; set-up: species or system tobacco mosaic virus (host Nicotiana tabacum L.cv.Xanthi NN)
Cercospora arachidicola = test: Fungicidal (bactericidal) activity in vitro, PDA colony diameter; type: cell-based; conditions: 50 mg/kg
Rhizoctonia solani = test: as above; type: cell-based; conditions: 50 mg/kg
Macrophoma kawatsukai = test: as above; type: cell-based; conditions: 50 mg/kg
cucumber fusarium wilt = test: as above; type: cell-based; conditions: 50 mg/kg
[4] = tested on: tobacco mosaic virus (TMV); test: Anti-TMV in vivo inactivation; set-up: species or system tobacco mosaic virus (host Nicotiana tabacum L.cv.Xanthi NN)
Bipolaria maydis = test: organism not typed; type: cell-based; conditions: 50 mg/kg
Botrytis cinerea = test: Fungicidal (bactericidal) activity in vitro, PDA colony diameter; type: cell-based; conditions: 50 mg/kg
Alternaria solani = test: as above; type: cell-based; conditions: 50 mg/kg
[5] = tested on: tobacco mosaic virus (TMV); test: Anti-TMV in vitro effect (half-leaf soaking); type: cell-based, tobacco mosaic virus (host Nicotiana tabacum L.cv.Xanthi NN)
mosquito larvae = test: whole plant or invertebrate; conditions: 24 h
How it was run: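 Compound dissolved in acetone (or other solvent) to a 1000 ppm stock and diluted in water to 5 ppm. Ten Culex pipiens pallens larvae at the start of the fourth instar, laboratory-reared, added per beaker; solvent-only aqueous control.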

Rhizoctonia cereali = test: Fungicidal (bactericidal) activity in vitro, PDA colony diameter; type: cell-based; conditions: 50 mg/kg
armyworms = type: in vivo; conditions: concentration 600 mg/kg
Fusarium graminearumt = test: microbe, parasite or virus in culture; type: cell-based; conditions: 50 mg/kg

SMILES: C[C@@H]1N[C@H](C(=O)NN=Cc2ncc[nH]2)Cc2c1[nH]c1ccccc21 [Ic-21, (1S, 3S)—N′-(imidazole-2-methylene)-1-methyl-2,3,4,9-tetrahydropyridino [3,4-b] indol-3-formylhydrazine]
- Corn borer Mortality (%) (corn borers): 35%
- Bactericidal activity (%) Colletotrichum orbiculare [1]: 25.9%
- Bactericidal activity (%) potato late blight (potato late blight): 24.0%
- Bactericidal activity (%) Phytophthora capsici (Phytophthora capsici): 18.4%
- Bactericidal activity (%) Sclerotinia scleotiorum (Sclerotinia scleotiorum): 35.3%
- Relative inhibition rate (%) In vivo protection ([2]; treatment dose 100 μg/mL): 18.5%
- Relative inhibition rate (%) In vivo protection ([2]; treatment dose 500 μg/mL): 48.1%
- Cotton bollworm Mortality (%) (cotton bollworms): 45%
- Bactericidal activity (%) Fusarium fujikuroi (Fusarium fujikuroi): 28.6%
- Relative inhibition rate (%) In vivo therapy ([3]; treatment dose 100 μg/mL): 12.6%
- Relative inhibition rate (%) In vivo therapy ([3]; treatment dose 500 μg/mL): 45.3%
- Bactericidal activity (%) Cercospora arachidicola (Cercospora arachidicola): 47.1%
- Bactericidal activity (%) Rhizoctonia solani (Rhizoctonia solani): 15.8%
- Bactericidal activity (%) Macrophoma kawatsukai (Macrophoma kawatsukai): 97.2%
- Bactericidal activity (%) Cucumber fusarium wilt (cucumber fusarium wilt): 34.6%
- Relative inhibition rate (%) In vivo inactivation ([4]; treatment dose 100 μg/mL): 21.3%
- Relative inhibition rate (%) In vivo inactivation ([4]; treatment dose 500 μg/mL): 49.6%
- Bactericidal activity (%) Bipolaria maydis (Bipolaria maydis): 12.0%
- Bactericidal activity (%) Botrytis cinerea (Botrytis cinerea): 36.4%
- Bactericidal activity (%) Alternaria solani (Alternaria solani): 15.0%
- Relative inhibition rate (%) In vitro activity ([5]; treatment dose 100 μg/mL): 0%
- Relative inhibition rate (%) In vitro activity ([5]; treatment dose 500 μg/mL): 42.4%
- Mosquito larvae Mortality (%) (mosquito larvae; concentration 10 mg/kg): 85%
- Bactericidal activity (%) Rhizoctonia cereali (Rhizoctonia cereali): 64.7%
- Armyworm Mortality (%) (armyworms): 40%
- Bactericidal activity (%) Fusarium graminearumt (Fusarium graminearumt): 27.6%

SMILES: C/C=C/C=NNC(=O)[C@@H]1Cc2c([nH]c3ccccc23)[C@H](C)N1 [Ic-22, (1S, 3S)—N′-((E)-but-2-enylidene)-1-methyl-2,3,4,9-tetrahydropyridino [3,4-b] indol-3-formylhydrazine]
- Corn borer Mortality (%) (corn borers): 50%
- Bactericidal activity (%) Colletotrichum orbiculare [1]: 22.2%
- Bactericidal activity (%) potato late blight (potato late blight): 32.0%
- Bactericidal activity (%) Phytophthora capsici (Phytophthora capsici): 31.6%
- Bactericidal activity (%) Sclerotinia scleotiorum (Sclerotinia scleotiorum): 41.2%
- Relative inhibition rate (%) In vivo protection ([2]; treatment dose 100 μg/mL): 6.7%
- Relative inhibition rate (%) In vivo protection ([2]; treatment dose 500 μg/mL): 37.1%
- Cotton bollworm Mortality (%) (cotton bollworms): 20%
- Bactericidal activity (%) Fusarium fujikuroi (Fusarium fujikuroi): 14.3%
- Relative inhibition rate (%) In vivo therapy ([3]; treatment dose 100 μg/mL): 0%
- Relative inhibition rate (%) In vivo therapy ([3]; treatment dose 500 μg/mL): 33.2%
- Bactericidal activity (%) Cercospora arachidicola (Cercospora arachidicola): 29.4%
- Bactericidal activity (%) Rhizoctonia solani (Rhizoctonia solani): 6.6%
- Bactericidal activity (%) Macrophoma kawatsukai (Macrophoma kawatsukai): 52.8%
- Bactericidal activity (%) Cucumber fusarium wilt (cucumber fusarium wilt): 26.9%
- Relative inhibition rate (%) In vivo inactivation ([4]; treatment dose 100 μg/mL): 8.5%
- Relative inhibition rate (%) In vivo inactivation ([4]; treatment dose 500 μg/mL): 47%
- Bactericidal activity (%) Bipolaria maydis (Bipolaria maydis): 36.0%
- Bactericidal activity (%) Botrytis cinerea (Botrytis cinerea): 40.9%
- Bactericidal activity (%) Alternaria solani (Alternaria solani): 30.0%
- Relative inhibition rate (%) In vitro activity ([5]; treatment dose 100 μg/mL): 0%
- Relative inhibition rate (%) In vitro activity ([5]; treatment dose 500 μg/mL): 35.2%
- Mosquito larvae Mortality (%) (mosquito larvae; concentration 10 mg/kg): 85%
- Bactericidal activity (%) Rhizoctonia cereali (Rhizoctonia cereali): 64.7%
- Armyworm Mortality (%) (armyworms): 40%
- Bactericidal activity (%) Fusarium graminearumt (Fusarium graminearumt): 20.7%

SMILES: CCCC=NNC(=O)[C@@H]1Cc2c([nH]c3ccccc23)[C@H](C)N1 [Ic-23, (1S, 3S)—N′-butylidene-1-methyl-2,3,4,9-tetrahydropyridino [3,4-b] indol-3-formylhydrazine]
- Corn borer Mortality (%) (corn borers): 10%
- Bactericidal activity (%) Colletotrichum orbiculare [1]: 14.8%
- Bactericidal activity (%) potato late blight (potato late blight): 20.0%
- Bactericidal activity (%) Phytophthora capsici (Phytophthora capsici): 5.3%
- Bactericidal activity (%) Sclerotinia scleotiorum (Sclerotinia scleotiorum): 64.7%
- Relative inhibition rate (%) In vivo protection ([2]; treatment dose 100 μg/mL): 11.3%
- Relative inhibition rate (%) In vivo protection ([2]; treatment dose 500 μg/mL): 40.5%
- Cotton bollworm Mortality (%) (cotton bollworms): 10%
- Bactericidal activity (%) Fusarium fujikuroi (Fusarium fujikuroi): 0.0%
- Relative inhibition rate (%) In vivo therapy ([3]; treatment dose 100 μg/mL): 10.4%
- Relative inhibition rate (%) In vivo therapy ([3]; treatment dose 500 μg/mL): 41.3%
- Bactericidal activity (%) Cercospora arachidicola (Cercospora arachidicola): 17.6%
- Bactericidal activity (%) Rhizoctonia solani (Rhizoctonia solani): 6.6%
- Bactericidal activity (%) Macrophoma kawatsukai (Macrophoma kawatsukai): 69.4%
- Bactericidal activity (%) Cucumber fusarium wilt (cucumber fusarium wilt): 19.2%
- Relative inhibition rate (%) In vivo inactivation ([4]; treatment dose 100 μg/mL): 13.4%
- Relative inhibition rate (%) In vivo inactivation ([4]; treatment dose 500 μg/mL): 47.1%
- Bactericidal activity (%) Bipolaria maydis (Bipolaria maydis): 12.0%
- Bactericidal activity (%) Botrytis cinerea (Botrytis cinerea): 9.1%
- Bactericidal activity (%) Alternaria solani (Alternaria solani): 45.0%
- Relative inhibition rate (%) In vitro activity ([5]; treatment dose 100 μg/mL): 7.8%
- Relative inhibition rate (%) In vitro activity ([5]; treatment dose 500 μg/mL): 32.6%
- Mosquito larvae Mortality (%) (mosquito larvae; concentration 10 mg/kg): 35%
- Bactericidal activity (%) Rhizoctonia cereali (Rhizoctonia cereali): 43.1%
- Armyworm Mortality (%) (armyworms): 15%
- Bactericidal activity (%) Fusarium graminearumt (Fusarium graminearumt): 6.9%

SMILES: CCCCCCCC=NNC(=O)[C@@H]1Cc2c([nH]c3ccccc23)[C@H](C)N1 [Ic-24, (1S, 3S)—N′-octadien-1-methyl-2,3,4,9-tetrahydropyridino [3,4-b] indol-3-formylhydrazine]
- Corn borer Mortality (%) (corn borers): 50%
- Bactericidal activity (%) Colletotrichum orbiculare [1]: 32.0%
- Bactericidal activity (%) potato late blight (potato late blight): 17.4%
- Bactericidal activity (%) Phytophthora capsici (Phytophthora capsici): 18.2%
- Bactericidal activity (%) Sclerotinia scleotiorum (Sclerotinia scleotiorum): 46.2%
- Relative inhibition rate (%) In vivo protection ([2]; treatment dose 100 μg/mL): 27.3%
- Relative inhibition rate (%) In vivo protection ([2]; treatment dose 500 μg/mL): 59.6%
- Cotton bollworm Mortality (%) (cotton bollworms): 20%
- Bactericidal activity (%) Fusarium fujikuroi (Fusarium fujikuroi): 35.3%
- Relative inhibition rate (%) In vivo therapy ([3]; treatment dose 100 μg/mL): 31.7%
- Relative inhibition rate (%) In vivo therapy ([3]; treatment dose 500 μg/mL): 70.9%
- Bactericidal activity (%) Cercospora arachidicola (Cercospora arachidicola): 36.4%
- Bactericidal activity (%) Rhizoctonia solani (Rhizoctonia solani): 22.2%
- Bactericidal activity (%) Macrophoma kawatsukai (Macrophoma kawatsukai): 24.2%
- Bactericidal activity (%) Cucumber fusarium wilt (cucumber fusarium wilt): 9.1%
- Relative inhibition rate (%) In vivo inactivation ([4]; treatment dose 100 μg/mL): 32.8%
- Relative inhibition rate (%) In vivo inactivation ([4]; treatment dose 500 μg/mL): 73.4%
- Bactericidal activity (%) Bipolaria maydis (Bipolaria maydis): 36.0%
- Bactericidal activity (%) Botrytis cinerea (Botrytis cinerea): 44.4%
- Bactericidal activity (%) Alternaria solani (Alternaria solani): 19.0%
- Relative inhibition rate (%) In vitro activity ([5]; treatment dose 100 μg/mL): 23.2%
- Relative inhibition rate (%) In vitro activity ([5]; treatment dose 500 μg/mL): 61.3%
- Mosquito larvae Mortality (%) (mosquito larvae; concentration 5 mg/kg): 10%
- Mosquito larvae Mortality (%) (mosquito larvae; concentration 10 mg/kg): 100%
- Bactericidal activity (%) Rhizoctonia cereali (Rhizoctonia cereali): 29.7%
- Armyworm Mortality (%) (armyworms): 45%
- Bactericidal activity (%) Fusarium graminearumt (Fusarium graminearumt): 61.5%

— patent publication US10208033B2, “β-carboline, dihydro-β-carboline and tetrahydro-β-carboline alkaloid derivatives and preparation methods same and use in aspects of preventing and treating plant viruses, fungicides and insecticides” (NANKAI UNIVERSITY, priority 2013, dated 2019)
